Laboratory results from patent US10533015B1, “Opioid receptor antagonist prodrugs” (Nirsum Laboratories, Inc., priority 2019, dated 2020).
Like-named read-outs stand apart in the source and are kept apart here.

How the values were obtained:
[1] = Polymorph screening of solid state drug substances; settings: for Dry method and appearance: after stirring 50 °C 72 hours, dried solid; for XRPD results (Dried): dried solid after 50 °C 72 hours; for Visual observation 50° C. / Visual observation RT: target conc. 100 mg/ml
[2] = Plasma stability assay, rat plasma; format: in vitro ADME; settings: 10 μM, 37° C.
Description: Plasma stability determination of the test compounds in rat, dog, cynomolgus monkey and human plasma is performed using HPLC-MS. For rat, incubations are carried out in 96-well polypropylene plates in 5 aliquots of 70 μL each (one for each time point). […] Five time points are analyzed (0, 15, 120, 480 and 1440 min). For dog, monkey and human, test compounds (2 μM, final solvent concentration 1%) were also incubated at 37° C. and analyzed at five time points (0, 10, 30, 60 and 120 min). All incubations are performed in duplicates. The samples are analyzed by HPLC-MS. The percentage of parent compound remaining after incubation in plasma is determined.

[3] = heating temp. 40 °C, obs. temp. 40 °C
[4] = heating temp. 60 °C, obs. temp. 40 °C
[5] = heating temp. 60 °C, obs. temp. 25 °C

With C=C1CC[C@@]2(O)C3Cc4ccc(OC(=O)CCCCCCCCCCCCCCCCCCC)c5c4[C@@]2(CCN3CC2CC2)[C@H]1O5 [Compound 16, (4aS,7aS,12bS)-3-(cyclopropylmethyl)-4a-hydroxy-7-methylene-2,3,4,4a,5,6,7,7a-octahydro-1H-4,12-methanobenzofuro[3,2-e]isoquinolin-9-yl icosanoate] the “Dry method and appearance” value ([1]; Acetone) was “Evaporation/white powder”, the “XRPD results (Dried)” value ([1]; Acetone) was “Pattern A” and the “Visual observation 50° C.” value ([1]; Acetone) was “Clear”. For the same molecule, the “Visual observation RT” value ([1]; Acetone) was “Slurry”, the “Dry method and appearance” value ([1]; EtOAc) was “Evaporation/white powder” and the “XRPD results (Dried)” value ([1]; EtOAc) was “Pattern A”. The “Visual observation 50° C.” value ([1]; EtOAc) was “Clear”, the “Visual observation RT” value ([1]; EtOAc) was “Slurry” and the “Dry method and appearance” value ([1]; Heptane) was “Centrifugation/white powder”. For the same molecule, the “XRPD results (Dried)” value ([1]; Heptane) was “Pattern A”, the “Visual observation 50° C.” value ([1]; Heptane) was “Slurry” and the “Visual observation RT” value ([1]; Heptane) was “Slurry”. For the same molecule, the “Dry method and appearance” value ([1]; Isopropanol) was “Centrifugation/white powder”, the “XRPD results (Dried)” value ([1]; Isopropanol) was “Pattern A” and the “Visual observation 50° C.” value ([1]; Isopropanol) was “Slurry”. The “Visual observation RT” value ([1]; Isopropanol) was “Slurry”, the “Dry method and appearance” value ([1]; MTBE) was “Evaporation/white powder” and the “XRPD results (Dried)” value ([1]; MTBE) was “Pattern A”. The “Visual observation 50° C.” value ([1]; MTBE) was “Clear”, the “Visual observation RT” value ([1]; MTBE) was “Clear” and the “Approximate Solubility (mg/mL) in Excipient: Cottonseed oil” value (from here on “Approximate Solubility … Cottonseed oil”) [3] was 57 to 67 mg/mL. For the same molecule, the “Approximate Solubility … Cottonseed oil” value [4] was 201 to 403 mg/mL, the “Approximate Solubility (mg/mL) in Excipient: Ethanol” value (from here on “Approximate Solubility … Ethanol”) [3] was under 25 mg/mL and the “Approximate Solubility (mg/mL) in Excipient: Sesame oil” value (“Approximate Solubility … Sesame oil” below) [3] was 68 to 81 mg/mL. The “Approximate Solubility … Sesame oil” value [4] was 202 to 404 mg/mL.

For C=C1CC[C@@]2(O)C3Cc4ccc(OC(=O)OCCCCCCCC)c5c4[C@@]2(CCN3CC2CC2)[C@H]1O5 [Compound 17, (4aS,7aS,12bS)-3-(cyclopropylmethyl)-4a-hydroxy-7-methylene-2,3,4,4a,5,6,7,7a-octahydro-1H-4,12-methanobenzofuro[3,2-e]isoquinolin-9-yl octyl carbonate], the “% remaining at time point” value ([2]; 0 min) was 100%, the “% remaining at time point” value ([2]; 15 min) was 0% and the “% remaining at time point” value ([2]; 120 min) was 0%. The “% remaining at time point” value ([2]; 480 min) was 0% and the “% remaining at time point” value ([2]; 1440 min) was 0%.

For C=C1CC[C@@]2(O)C3Cc4ccc(OC(=O)OCCCCCCCCCC)c5c4[C@@]2(CCN3CC2CC2)[C@H]1O5 [Compound 18, (4aS,7aS,12bS)-3-(cyclopropylmethyl)-4a-hydroxy-7-methylene-2,3,4,4a,5,6,7,7a-octahydro-1H-4,12-methanobenzofuro[3,2-e]isoquinolin-9-yl decyl carbonate], the “Approximate Solubility … Cottonseed oil” value [3] was over 403 mg/mL, the “Approximate Solubility … Cottonseed oil” value [5] was over 400 mg/mL and the “Approximate Solubility … Ethanol” value [3] was over 209 mg/mL. The “Approximate Solubility … Sesame oil” value [3] was over 403 mg/mL, the “Approximate Solubility … Sesame oil” value [5] was over 402 mg/mL and the “Equilibrium solubility (mg/mL) Water” value [3] was under 0.0002 mg/mL. The “% remaining at time point” value ([2]; 0 min) was 100%, the “% remaining at time point” value ([2]; 15 min) was 0.6% and the “% remaining at time point” value ([2]; 120 min) was 0.3%. For the same molecule, the “% remaining at time point” value ([2]; 480 min) was 0.1% and the “% remaining at time point” value ([2]; 1440 min) was 0%.

With CCCCCCCCOC(=O)Oc1ccc2c3c1O[C@H]1C(=O)CC[C@@]4(O)C(C2)N(CC2CC2)CC[C@]314 [Compound 23, (4aS,7aR,12bS)-3-(cyclopropylmethyl)-4a-hydroxy-7-oxo-2,3,4,4a,5,6,7,7a-octahydro-1H-4,12-methanobenzofuro[3,2-e]isoquinolin-9-yl octyl carbonate] the “% remaining at time point” value ([2]; 0 min) was 100%, the “% remaining at time point” value ([2]; 15 min) was 0% and the “% remaining at time point” value ([2]; 120 min) was 0%. The “% remaining at time point” value ([2]; 480 min) was 0% and the “% remaining at time point” value ([2]; 1440 min) was 0%.

For C=C1CC[C@@]2(O)C3Cc4ccc(OC(=O)OCCCCCCCCCCCCCCCCCC)c5c4[C@@]2(CCN3CC2CC2)[C@H]1O5 [Compound 33, (4aS,7aS,12bS)-3-(cyclopropylmethyl)-4a-hydroxy-7-methylene-2,3,4,4a,5,6,7,7a-octahydro-1H-4,12-methanobenzofuro[3,2-e]isoquinolin-9-yl octadecyl carbonate], the “Approximate Solubility … Cottonseed oil” value [5] was under 50 mg/mL, the “Approximate Solubility … Sesame oil” value [5] was under 51 mg/mL and the “Equilibrium solubility (mg/mL) Water” value [3] was under 0.001 mg/mL.

For C=C1CC[C@@]2(O)C3Cc4ccc(OC(=O)CCCCCCC/C=C\C/C=C\CCCCC)c5c4[C@@]2(CCN3CC2CC2)[C@H]1O5 [Compound 37, (4aS,7aS,12bS)-3-(cyclopropylmethyl)-4a-hydroxy-7-methylene-2,3,4,4a,5,6,7,7a-octahydro-1H-4,12-methanobenzofuro[3,2-e]isoquinolin-9-yl (9Z,12Z)-octadeca-9,12-dienoate], the “Approximate Solubility (mg/mL) in Excipient: Castor oil” value (Castor oil, heating temp. 40 °C, obs. temp. 40 °C) was over 226 mg/mL, the “Approximate Solubility … Cottonseed oil” value [5] was 68.5-82^ mg/mL and the “Approximate Solubility … Ethanol” value [3] was 75 to 90 mg/mL. For the same molecule, the “Approximate Solubility … Sesame oil” value [3] was over 408.4 mg/mL and the “Approximate Solubility … Sesame oil” value [5] was 80 to 102 mg/mL.

In the case of CCCCCCCC/C=C\CCCCCCCC(=O)Oc1ccc2c3c1O[C@H]1C(=O)CC[C@@]4(O)C(C2)N(CC2CC2)CC[C@]314 [Compound 41, (4aS,7aR,12bS)-3-(cyclopropylmethyl)-4a-hydroxy-7-oxo-2,3,4,4a,5,6,7,7a-octahydro-1H-4,12-methanobenzofuro[3,2-e]isoquinolin-9-yl oleate], the “Approximate Solubility … Cottonseed oil” value [3] is reported as over 407 mg/mL, the “Approximate Solubility … Cottonseed oil” value [5] is reported as under 50 mg/mL and the “Approximate Solubility … Ethanol” value [3] is reported as over 201 mg/mL. For the same molecule, the “Approximate Solubility … Sesame oil” value [5] was under 50 mg/mL.

In the case of C=C1CC[C@@]2(O)C3Cc4ccc(OCOC(=O)CCCCCCCCCCC)c5c4[C@@]2(CCN3CC2CC2)[C@H]1O5 [Compound 44, (((4aS,7aS,12bS)-3-(cyclopropylmethyl)-4a-hydroxy-7-methylene-2,3,4,4a,5,6,7,7a-octahydro-1H-4,12-methanobenzofuro[3,2-e]isoquinolin-9-yl)oxy)methyl dodecanoate], the “Approximate Solubility … Cottonseed oil” value [5] is reported as over 407 mg/mL, the “Approximate Solubility … Sesame oil” value [5] is reported as 208 to 231 mg/mL and the “Equilibrium solubility (mg/mL) Water” value [3] is reported as under 0.001 mg/mL.

For C=C1CC[C@@]2(O)C3Cc4ccc(OCOC(=O)CCCCCCCCCCCCCCC)c5c4[C@@]2(CCN3CC2CC2)[C@H]1O5 [Compound 46, (((4aS,7aS,12bS)-3-(cyclopropylmethyl)-4a-hydroxy-7-methylene-2,3,4,4a,5,6,7,7a-octahydro-1H-4,12-methanobenzofuro[3,2-e]isoquinolin-9-yl)oxy)methyl hexadecanoate], the “Approximate Solubility … Cottonseed oil” value [5] was over 395.5 mg/mL, the “Approximate Solubility … Sesame oil” value [5] was 202 to 269 mg/mL and the “Equilibrium solubility (mg/mL) Water” value [3] was under 0.001 mg/mL.

With CCCCCCCCCCCCCCCCOC(=O)OCOc1ccc2c3c1O[C@H]1C(=O)CC[C@@]4(O)C(C2)N(CC2CC2)CC[C@]314 [Compound 47, (((4aS,7aR,12bS)-3-(cyclopropylmethyl)-4a-hydroxy-7-oxo-2,3,4,4a,5,6,7,7a-octahydro-1H-4,12-methanobenzofuro[3,2-e]isoquinolin-9-yl)oxy)methyl hexadecyl carbonate] the “Approximate Solubility … Cottonseed oil” value [5] was over 405.5 mg/mL and the “Equilibrium solubility (mg/mL) Water” value [3] was under 0.001 mg/mL.

For CCCCCCCCCCCC(=O)OCOc1ccc2c3c1O[C@H]1C(=O)CC[C@@]4(O)C(C2)N(CC2CC2)CC[C@]314 [Compound 48, (((4aS,7aR,12bS)-3-(cyclopropylmethyl)-4a-hydroxy-7-oxo-2,3,4,4a,5,6,7,7a-octahydro-1H-4,12-methanobenzofuro[3,2-e]isoquinolin-9-yl)oxy)methyl dodecanoate], the “Approximate Solubility … Cottonseed oil” value [5] was over 410.5 mg/mL.

With CCCCCCCCCCCCCCCC(=O)OCOc1ccc2c3c1O[C@H]1C(=O)CC[C@@]4(O)C(C2)N(CC2CC2)CC[C@]314 [Compound 49, (((4aS,7aR,12bS)-3-(cyclopropylmethyl)-4a-hydroxy-7-oxo-2,3,4,4a,5,6,7,7a-octahydro-1H-4,12-methanobenzofuro[3,2-e]isoquinolin-9-yl)oxy)methyl hexadecanoate] the “Approximate Solubility … Cottonseed oil” value [5] was under 50 mg/mL and the “Approximate Solubility … Sesame oil” value [5] was under 51 mg/mL.

In the case of “Enalapril maleate salt [reference compound]”, the “% remaining at time point” value ([2]; 0 min) is reported as 100%, the “% remaining at time point” value ([2]; 15 min) is reported as 44% and the “% remaining at time point” value ([2]; 120 min) is reported as 2.9%. For the same molecule, the “% remaining at time point” value ([2]; 480 min) was 8.2% and the “% remaining at time point” value ([2]; 1440 min) was 4.8%.
